Results reported in PMC5613053 (Investigational New Drugs, 2017).

Legend:
LTK = target: T1, LTK (Homo sapiens, UniProt P29376); assay: Kinase inhibitory assay (TK-ELISA / off-chip MSA); format: biochemical
T1 construct: purchased Carna Biosciences, Inc
Experimental: These assays were conducted according to the manufacturer’s instructions. […] TK-ELISA and MSA assays were used to conduct IC50 studies for FLT3, LTK, AXL, and c-KIT; the HTRF® KinEASE™-TK assay (Sceti Medical Labo, Tokyo, Japan) was performed according to the manufacturer’s protocol to assess the IC50 value of echinoderm microtubule-associated protein-like 4-ALK (EML4-ALK; three individual experiments for each kinase).

MV4–11-luc cells = assay: Intra-bone marrow transplantation (IBMT) model; format: in vivo, mice
Experimental: In the intra-bone marrow transplantation (IBMT) model, MV4–11-luc cells (1 × 10^6 cells/mouse) were injected into the bone marrow of the left tibia of female NOD-SCID mice (day 0) following the protocol detailed by Lee et al.. Tumor growth was monitored by bioluminescent imaging of the whole body with an IVIS Spectrum (PerkinElmer, Waltham, MA). […] Tumor growth was monitored once a week during the dosing period and then every other week until day 100. Survival was also monitored daily until day 168.

T1 sequence (P29376 17-864): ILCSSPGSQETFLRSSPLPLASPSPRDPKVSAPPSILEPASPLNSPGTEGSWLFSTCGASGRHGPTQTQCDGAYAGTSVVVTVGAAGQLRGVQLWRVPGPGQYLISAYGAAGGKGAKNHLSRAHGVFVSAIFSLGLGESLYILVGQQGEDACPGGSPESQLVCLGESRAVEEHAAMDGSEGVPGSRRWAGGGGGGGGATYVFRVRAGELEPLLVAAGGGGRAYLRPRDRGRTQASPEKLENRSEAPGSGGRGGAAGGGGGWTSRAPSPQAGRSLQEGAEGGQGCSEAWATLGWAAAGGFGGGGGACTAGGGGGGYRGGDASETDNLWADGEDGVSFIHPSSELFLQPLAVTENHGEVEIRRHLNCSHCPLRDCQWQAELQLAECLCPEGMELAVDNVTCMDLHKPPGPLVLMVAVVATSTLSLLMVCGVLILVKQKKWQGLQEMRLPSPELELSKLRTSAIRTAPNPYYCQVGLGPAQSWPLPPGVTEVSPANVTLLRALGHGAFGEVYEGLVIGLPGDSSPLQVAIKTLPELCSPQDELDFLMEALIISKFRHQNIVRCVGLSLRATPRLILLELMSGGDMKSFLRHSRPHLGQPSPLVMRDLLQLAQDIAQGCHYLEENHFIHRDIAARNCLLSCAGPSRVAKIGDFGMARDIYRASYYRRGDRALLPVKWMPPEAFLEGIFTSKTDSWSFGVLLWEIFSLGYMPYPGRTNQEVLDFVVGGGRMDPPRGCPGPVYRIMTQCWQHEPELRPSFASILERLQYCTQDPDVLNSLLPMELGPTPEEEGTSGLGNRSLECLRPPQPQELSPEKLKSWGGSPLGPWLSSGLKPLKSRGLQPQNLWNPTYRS

With CCc1nc(C(N)=O)c(Nc2ccc(N3CCC(N4CCN(C)CC4)CC3)c(OC)c2)nc1NC1CCOCC1 [gilteritinib] the IC50 (LTK) was 0.35 nM, the inhibition at 0.001 µM (LTK; 1 nM, single experiment) was > 50% and the Survival (MV4–11-luc cells; 30 mg/kg once daily day 15–70, monitored until day 168, n = 10) was “all treated mice survived to day 168”. The “MV4–11 cell infiltration” value (MV4–11-luc cells; 30 mg/kg once daily, whole-body imaging) was “no evidence of cell infiltration”.
